Measured values reported in US12616753B2, “HSP70 inhibitors and methods of using same” (THE WISTAR INSTITUTE, priority 2020, dated 2026).

Columns and labels:
[1] = system: CRC cell lines (HT-29, LS411N, and SW620); assay: Trypan Blue exclusion viability assay, CRC cell lines; type: cell-based, human; conditions: 10 μM, 48 hours
Description: FIGS. 4A-4F show AP-4-139B is efficacious as a single agent against human CRC in vitro and in vivo. FIG. 4A: Three CRC cell lines (HT-29, LS411N, and SW620) were treated with 10 μM of PET-16 or AP-4-139B for 48 hours. Cell were then subjected to viability assays using Trypan Blue exclusion. *** p<0.001. […] FIGS. 4B-4C: A panel of six CRC cell lines (SW620, HT-29, HCT 116+/−p53, RKO, and LS411N) were plated at a density of 1,000 cells per well in 96-well plates. The next day, cells were treated with the indicated inhibitors for 72 hours. Cells were then subjected to the Alamar Blue cell viability assays. Shown are representative IC50 values of an average of six technical replicates and two biological replicates. FIG. 4D: 2.5×10^6 HT-29 cells were injected subcutaneously into the right flank of NSG mice. Once tumors reached an approximate volume of 100 mm^3, mice were separated randomly into two groups: control vs. AP-4-139B. Mice were treated with 12.5 mg/kg AP-4-139B three times a week. All mice were euthanized 22 days after the start of treatment. Tumor volumes were recorded using digital calipers and using the formula v=length×width^2×0.52. *** p<0.001. n=10 mice per group. FIG. 4E: Immunohistochemistry (IHC) analysis of HT-29 xenograft tumors treated with AP-4-139B. […]

[2] = system: IMR90 and CCD 841 CoN cells; assay: Seahorse XF Cell Mito Stress Test, normal cells; type: cell-based, human; conditions: 500 nM (sublethal), 24 hours
Description: FIG. 2A: IMR90 cells (non-transformed fibroblasts), 1205Lu (melanoma), and HT-29 (CRC) cancer cells were treated with sub-lethal doses (500 nM) of the HSP70 inhibitors PET-16 (positive control) or AP-4-139B for 24 hours. Cells were then subjected to the Seahorse Mito Stress Test Assay. Injections were Oligomycin (1 μM, line A), FCPP (0.5-1 μM, line B), and Rotenone/Antimycin A (1 μM, line C). Each graphical representation indicates the mean±standard deviation of a minimum of 5 technical replicates. […] Each experiment was performed in triplicate and independently repeated twice. FIGS. 2B-2D: Basal Oxygen Consumption Rate (ORC) (FIG. 2B), Maximal OCR (FIG. 2C), and ATP production (FIG. 2D) were analyzed in IMR90 fibroblasts, non-transformed colonic epithelial cells (CCD 841 CoN), 1205Lu melanoma cells and HT-29 CRC cells, in the presence or absence of 500 nM HSP70 inhibitors or negative control (VY-3-277). All experiments were performed in triplicate, with each group containing 5-6 technical replicates. ** p<0.01, *** p<0.001, n.s. not significant.
The XF Cell Mito Stress Test was performed. […] For extracellular ATP release, ATP was measured using the CellTiter-Glo Kit (Promega catalog #G7570). […] 10 μl of CellTiter-Glo Reaction Mix was then mixed with 10 μl of culture media; the luminescence signal was detected using a luminometer.

SMILES | decrease of CRC cell viability [1] | mitochondrial function in normal cells [2]
c1ccc(-c2cn3nc(CCCCCC[P+](c4ccccc4)(c4ccccc4)c4ccccc4)sc3n2)cc1 [AP-4-139B, Triphenyl(6-(6-phenylimidazo[2,1-b][1,3,4]thiadiazol-2-yl)hexyl)phosphonium bromide] | markedly more cytotoxic | largely unaffected
C(#C[P+](c1ccccc1)(c1ccccc1)c1ccccc1)c1ccccc1 [PET-16, Triphenyl(phenylethynyl)phosphonium bromide, reference compound] | modest ability to decrease CRC cell viability | largely unaffected
